Laboratory results published in US20250281410A1, “HIGH-THROUGHPUT PREPARATION OF MICROPARTICLES WITH PULSATILE RELEASE” (William Marsh Rice University, priority 2021, published 2025).

Tests used:
[1] = cited from earlier work
[2] = system: Avastin; assay: Release of active Avastin from microparticles with excipients, activity by ELISA; conditions: excipients added during fabrication
Description: FIGS. 27A-27F show the release of Avastin from microparticles. FIG. 27A is a heat map depicting the sum of the percentage of Avastin inside the microparticles and Avastin released from the microparticles. Data is normalized to amount of Avastin filled into microparticles. […] Avastin activity was measured using an ELISA. The excipients that were studied were bovine serum albumin (BSA) and sorbitol: monosodium glutamate (MSG): magnesium chloride (MgCl2). FIGS. 27B-27I show plots of the release kinetics of the microparticle formulations of FIG. 27A. The release kinetics depicted in FIG. 27B are for a microparticle with 3 μg BSA as an excipient. The release kinetics depicted in FIG. 27C are for a microparticle with 2 μg BSA as an excipient. […]
Due to concern about the thermal stress potential involved when heating up biotherapeutics which may be desirable as a payload of the microparticles described herein, the temperature of the microparticles was measured during the sealing process to determine the peak temperature and duration of exposure to elevated temperature to quantify the thermal stress that the protein might experience (FIG. 25). […] To determine if these temperatures would damage encapsulated biotherapeutics, the stability of horseradish peroxidase (HRP), was assessed after every step in the formulation process (dispensing, drying, and sealing). […]

Q: With `CC(C)Cn1cnc2c(N)nc3ccccc3c21` [imiquimod] as the compound, how does the solubility in water [1] read?
A: approximately 2 μg/mL

Q: With “Avastin: a fragile biotherapeutic used to treat certain cancers” as the compound, how does the “Avastin remaining after release” value [2] read?
A: significant amounts
